# pIC50: −log10 of the molar value.
# Assays:
# trypsin = tested on: trypsin; design: method as in COVID Moonshot; settings: Docking_validation.csv; ref COVID Moonshot; read-out: trypsin_IC50; cited from earlier work
# [1] = target: recombinant SARS-CoV-2 main protease Mpro (Severe acute respiratory syndrome coronavirus 2, UniProt P0DTC1); assay: FRET-based Mpro proteolytic activity assay; assay type: biochemical; settings: for pIC50: Mpro FRET (1 μM DTT)
# SARS-CoV-2 main protease [2] = assay type: biochemical; settings: Docking validation set, class assigned from COVID Moonshot IC50
# SARS-CoV-2 main protease [3] = settings: cited from earlier work; for pIC50: Docking_validation.csv, ref COVID Moonshot, read-out: f_avg_IC50; for f_avg_pIC50: Covid_Moonshot_activity_data.csv, ref COVID Moonshot (covid.postera.ai)
# [4] = tested on: SARS, SARS-CoV-2 and MERS Mpro; settings: Origin COVID_Moonshot; ref COVID Moonshot; cited from earlier work
# Mpro = settings: ML dataset, Origin COVID_Moonshot; ref COVID Moonshot; cited from earlier work
# human Cathepsin L = human Cathepsin L (Homo sapiens, UniProt P07711); assay: Fluorimetric human liver Cathepsin L (hCatL) activity assay; assay type: biochemical; settings: reference inhibitor
# [5] = tested on: host–cell proteases, such as cathepsin L; design: method as in PMID 34726479, PMID 35352927, PMID 33158912; settings: cited from earlier work
# human Cathepsin L, sequence (P07711 114-333 limits assumed): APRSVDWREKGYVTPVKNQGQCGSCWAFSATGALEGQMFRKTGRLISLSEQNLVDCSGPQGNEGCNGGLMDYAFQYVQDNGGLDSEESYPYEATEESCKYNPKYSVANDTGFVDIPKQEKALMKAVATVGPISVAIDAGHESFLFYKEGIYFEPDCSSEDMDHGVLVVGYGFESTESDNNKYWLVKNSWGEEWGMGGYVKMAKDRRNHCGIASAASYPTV
molecule,measurement,setting,value
"O=C(Oc1cncc(Cl)c1)c1cccc2[nH]ccc12 [ALP-POS-c59291d4-5, O=C(Oc1cncc(Cl)c1)c1cccc2[nH]ccc12]",pIC50,trypsin,4.00
"Cc1cncc(CC(=O)N2CCC[C@H]2c2cccc(Cl)c2)c1 [Compound 7, (S)-1-(2-(3-chlorophenyl)pyrrolidin-1-yl)-2-(5-methylpyridin-3-yl)ethan-1-one]",pIC50,[1],5.25
"Cc1cncc(CC(=O)N2CCc3cc(Cl)c(Cl)cc3C2)c1 [Compound 12, 1-(6,7-dichloro-3,4-dihydroisoquinolin-2(1H)-yl)-2-(5-methylpyridin-3-yl)ethan-1-one]",pIC50,[1],5.64
same,fold improvement of Mpro FRET IC50 after first round of optimization,[1]; relative to the parent hit (compound 8 or 10),27 fold
"CCn1cncc1NC(=O)C1c2cc(Cl)cc(Cl)c2OCC1C (stereo not drawn) [Compound 21, 6,8-dichloro-N-(1-ethyl-1H-imidazol-5-yl)-3-methylchromane-4-carboxamide]",pIC50,[1],4.17
"O=C(Nc1nncn1C1CC1)C1CCOc2ccc(Cl)cc21 (stereo not drawn) [JAG-UCB-a3ef7265-20, O=C(Nc1nncn1C1CC1)C1CCOc2ccc(Cl)cc21]",label (active / inactive),SARS-CoV-2 main protease [2],inactive
"Cc1ccc(-n2ncc3c(=O)n(CC(N)=O)cnc32)cc1C [JAG-UCB-ef2c0e8e-4, Cc1ccc(-n2ncc3c(=O)n(CC(N)=O)cnc32)cc1C]",label (active / inactive),SARS-CoV-2 main protease [2],inactive
"O=C(Cc1cccc(Cl)c1)Nn1cnc2ccccc2c1=O [JAN-GHE-5a013bed-3, O=C(Cc1cccc(Cl)c1)Nn1cnc2ccccc2c1=O]",label (active / inactive),SARS-CoV-2 main protease [2],inactive
same,pIC50,SARS-CoV-2 main protease [3],5.06
same,pIC50,trypsin,4.00
"CC(=O)NCCc1c[nH]c2ccc(O)cc12 [JOH-MSK-a63bdd1d-4, CC(=O)NCCc1c[nH]c2ccc(O)cc12]",label (active / inactive),SARS-CoV-2 main protease [2],inactive
"O=C(Nc1cccnc1)N(CCN1CCOCC1)c1cccc(Cl)c1 [JOR-UNI-2fc98d0b-6, O=C(Nc1cccnc1)N(CCN1CCOCC1)c1cccc(Cl)c1]",label (active / inactive),SARS-CoV-2 main protease [2],inactive
"O=S(=O)(Cc1ccccc1F)c1oc(-c2ccc(F)cc2)nc1S(=O)(=O)c1ccccc1 [LON-WEI-4d77710c-2, O=S(=O)(Cc1ccccc1F)c1oc(-c2ccc(F)cc2)nc1S(=O)(=O)c1ccccc1]",pIC50,SARS-CoV-2 main protease [3],6.40
same,pIC50,[4],6.40
same,pIC50,Mpro,6.60
"CCOC(=O)c1c(C)n(S(C)(=O)=O)c2ccc(N(C(=O)c3ccco3)S(C)(=O)=O)cc12 [LON-WEI-4d77710c-8, CCOC(=O)c1c(C)n(S(C)(=O)=O)c2ccc(N(C(=O)c3ccco3)S(C)(=O)=O)cc12]",pIC50,SARS-CoV-2 main protease [3],6.55
same,pIC50,[4],6.55
same,pIC50,Mpro,6.67
"O=C(Nc1cccc(C(F)(F)F)c1)Nc1ccccc1Sc1ncc([N+](=O)[O-])s1 [LON-WEI-4d77710c-69, O=C(Nc1cccc(C(F)(F)F)c1)Nc1ccccc1Sc1ncc([N+](=O)[O-])s1]",pIC50,SARS-CoV-2 main protease [3],5.20
"N#Cc1cnn(C(=O)c2cccs2)c1C1CC1 [LON-WEI-4d77710c-70, N#Cc1cnn(C(=O)c2cccs2)c1C1CC1]",pIC50,SARS-CoV-2 main protease [3],5.49
same,pIC50,[4],5.49
same,pIC50,Mpro,5.74
"c1ccc(-c2cc(Sc3nnc(-c4cccs4)o3)n3ncnc3n2)cc1 [LON-WEI-4d77710c-76, c1ccc(-c2cc(Sc3nnc(-c4cccs4)o3)n3ncnc3n2)cc1]",pIC50,SARS-CoV-2 main protease [3],6.66
same,pIC50,[4],6.66
same,pIC50,Mpro,6.73
"O=C(Nc1ccccc1)[C@@H](c1ccccc1)N1Cc2ccccc2C1=O [LON-WEI-b2874fec-15, O=C(Nc1ccccc1)[C@@H](c1ccccc1)N1Cc2ccccc2C1=O]",label (active / inactive),SARS-CoV-2 main protease [2],inactive
CC(=O)N[C@@H](CC(C)C)C(=O)N[C@@H](CC(C)C)C(=O)N[C@H](C=O)CCCNC(=N)N [Leupeptin],pIC50,human Cathepsin L,~8.70
"CC1C(O)CCCN1Cc1ccccc1 (stereo not drawn) [MAK-UNK-6435e6c2-9, CC1C(O)CCCN1Cc1ccccc1]",label (active / inactive),SARS-CoV-2 main protease [2],inactive
"O=C(Nc1cncc2ccccc12)C1=CCCc2ccc(Cl)cc21 [MAT-POS-0c8fa4a7-1, O=C(Nc1cncc2ccccc12)C1=CCCc2ccc(Cl)cc21]",pIC50,SARS-CoV-2 main protease [3],6.63
same,pIC50,[4],6.63
same,pIC50,Mpro,6.80
"COc1ccc(Cl)cc1OCCNC(=O)c1cc(=O)[nH]c2cccc(OC)c12 [MAT-POS-3b536971-1, COc1ccc(Cl)cc1OCCNC(=O)c1cc(=O)[nH]c2cccc(OC)c12]",pIC50,SARS-CoV-2 main protease [3],6.06
same,pIC50,[4],6.06
"O=C(c1cc(=O)[nH]c2ccc(F)cc12)N1CCN(S(=O)(=O)c2cccc(Cl)c2)CC1 [MAT-POS-590ac91e-69, O=C(c1cc(=O)[nH]c2ccc(F)cc12)N1CCN(S(=O)(=O)c2cccc(Cl)c2)CC1]",label (active / inactive),SARS-CoV-2 main protease [2],inactive
"O=C(NCC1(C(=O)Nc2cncc3ccccc23)CCOc2ccc(Cl)cc21)C1COCCN1CC(F)(F)F (stereo not drawn) [MAT-POS-932d1078-1, O=C(NCC1(C(=O)Nc2cncc3ccccc23)CCOc2ccc(Cl)cc21)C1COCCN1CC(F)(F)F]",f_avg_pIC50,SARS-CoV-2 main protease [3],4.666
"COC[C@]1(C(=O)Nc2cncc3ccccc23)CCOc2cc(Cl)c(Cl)cc21 [MAT-POS-932d1078-4, COC[C@]1(C(=O)Nc2cncc3ccccc23)CCOc2cc(Cl)c(Cl)cc21]",f_avg_pIC50,SARS-CoV-2 main protease [3],5.492
"COC[C@@]1(C(=O)Nc2cncc3ccccc23)CCOc2cc(Cl)c(Cl)cc21 [MAT-POS-932d1078-5, COC[C@@]1(C(=O)Nc2cncc3ccccc23)CCOc2cc(Cl)c(Cl)cc21]",f_avg_pIC50,SARS-CoV-2 main protease [3],4.772
"O=C1CC(Oc2cc(Cl)cc(CC(=O)Nn3cnc4ccccc43)c2)N1 (stereo not drawn) [MAT-POS-c478e61b-1, O=C1CC(Oc2cc(Cl)cc(CC(=O)Nn3cnc4ccccc43)c2)N1]",label (active / inactive),SARS-CoV-2 main protease [2],inactive
same,pIC50,SARS-CoV-2 main protease [3],4.09
same,pIC50,Mpro,4.04
"O=C(Nc1cncc2ccccc12)C1COc2ccc(Cl)cc21 (stereo not drawn) [MAT-POS-f7918075-2, O=C(Nc1cncc2ccccc12)C1COc2ccc(Cl)cc21]",pIC50,SARS-CoV-2 main protease [3],6.12
same,pIC50,[4],5.58
"Cc1ccncc1NC(=O)Cc1cncc(Cl)c1 [TRY-UNI-2eddb1ff-2, Cc1ccncc1NC(=O)Cc1cncc(Cl)c1]",label (active / inactive),SARS-CoV-2 main protease [2],inactive
same,pIC50,SARS-CoV-2 main protease [3],4.33
same,pIC50,trypsin,4.00
"NS(=O)(=O)c1ccc(N2CCC([C@@H]3CCCO3)CC2)cc1 [WAR-XCH-b72a1bbc-18, NS(=O)(=O)c1ccc(N2CCC([C@@H]3CCCO3)CC2)cc1]",label (active / inactive),SARS-CoV-2 main protease [2],inactive
Cn1cnc(Cn2c(=O)[nH]/c(=N\c3cc4cn(C)nc4cc3Cl)n(Cc3cc(F)c(F)cc3F)c2=O)n1 [ensitrelvir],"inhibitory activity against host–cell proteases, such as cathepsin L",[5],no inhibitory activity
Nirmatrelvir–ritonavir,"inhibitory activity against host–cell proteases, such as cathepsin L",[5],no inhibitory activity

# Reference: article PMC11187573, “Identification of SARS-CoV-2 Mpro inhibitors through deep reinforcement learning for de novo drug design and computational chemistry approaches” (RSC Medicinal Chemistry, 2024)
